US9334246B2, “Substituted triazines for malaria treatment and chemoprophylaxis” (The United States of America, as represented by the …, priority 2013, dated 2016)
≈ marks a conversion by molar mass, not a printed value.

Legend:
[1] = system: P. falciparum D6; experiment: Malaria SYBR Green Fluorescence Assay, D6 strain; assay type: cell-based, Plasmodium falciparum
[2] = system: P. falciparum C235; experiment: Malaria SYBR Green Fluorescence Assay, C235 strain; assay type: cell-based, Plasmodium falciparum
[3] = molecular target: hERG potassium ion channel (Homo sapiens, UniProt Q12809); experiment: hERG patch clamp assay (% inhibition at 10 μM)
[4] = system: P. falciparum W2; experiment: Malaria SYBR Green Fluorescence Assay, W2 strain; assay type: cell-based, Plasmodium falciparum
[5] = % inhibition at 10 μM, patch clamp
[6] = Plasmodium falciparum, SYBR Green Assay

Sequence of hERG potassium ion channel (Q12809 whole entry): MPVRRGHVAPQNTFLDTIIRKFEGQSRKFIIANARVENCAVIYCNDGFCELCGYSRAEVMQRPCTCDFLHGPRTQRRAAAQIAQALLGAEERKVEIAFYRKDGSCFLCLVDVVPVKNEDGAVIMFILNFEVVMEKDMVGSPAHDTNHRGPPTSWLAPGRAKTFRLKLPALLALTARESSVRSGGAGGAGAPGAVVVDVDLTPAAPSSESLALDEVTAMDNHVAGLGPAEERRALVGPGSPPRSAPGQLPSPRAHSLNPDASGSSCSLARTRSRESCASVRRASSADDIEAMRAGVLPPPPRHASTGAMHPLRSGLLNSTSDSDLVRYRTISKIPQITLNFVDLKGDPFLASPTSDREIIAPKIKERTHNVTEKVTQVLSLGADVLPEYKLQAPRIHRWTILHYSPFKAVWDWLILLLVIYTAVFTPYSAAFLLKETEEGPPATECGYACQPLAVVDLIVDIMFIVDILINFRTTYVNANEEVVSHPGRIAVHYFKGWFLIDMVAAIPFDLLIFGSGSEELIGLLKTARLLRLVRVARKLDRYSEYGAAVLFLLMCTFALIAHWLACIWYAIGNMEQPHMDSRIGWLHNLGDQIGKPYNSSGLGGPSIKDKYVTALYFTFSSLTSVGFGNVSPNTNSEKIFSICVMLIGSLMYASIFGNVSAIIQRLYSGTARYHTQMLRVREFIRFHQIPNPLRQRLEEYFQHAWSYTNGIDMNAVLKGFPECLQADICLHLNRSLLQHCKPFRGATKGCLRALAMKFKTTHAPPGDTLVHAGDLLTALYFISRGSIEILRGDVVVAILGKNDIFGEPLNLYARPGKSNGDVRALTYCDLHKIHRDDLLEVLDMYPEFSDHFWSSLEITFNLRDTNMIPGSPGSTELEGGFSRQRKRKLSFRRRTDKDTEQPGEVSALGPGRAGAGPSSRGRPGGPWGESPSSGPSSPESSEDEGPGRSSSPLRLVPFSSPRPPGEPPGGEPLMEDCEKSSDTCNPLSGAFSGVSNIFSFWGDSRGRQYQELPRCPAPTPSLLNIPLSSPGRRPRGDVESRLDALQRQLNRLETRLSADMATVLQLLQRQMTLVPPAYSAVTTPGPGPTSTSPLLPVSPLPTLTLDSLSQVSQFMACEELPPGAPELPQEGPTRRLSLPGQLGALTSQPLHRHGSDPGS

| Molecule | D6 ([1]; SYBR Green Assay) [ng/mL] | C235 ([2]; SYBR Green Assay) [ng/mL] | W2 ([4]; SYBR Green Assay) [ng/mL] | other results |
| --- | --- | --- | --- | --- |
| 3-(4-((3-(dimethylamino)propyl)amino)-6-(trichloromethyl)-1,3,5-triazin-2-yl)benzoic acid [Example 11] | 588 | 592 | 475 | hERG ([3]; hERG activity as % inhibition): 15% |
| 4-(4-(((1-ethylpiperidin-4-yl)methyl)amino)-6-(trichloromethyl)-1,3,5-triazin-2-yl)benzoic acid [Example 12] | 5 | 4 | 11 | hERG ([3]; hERG activity as % inhibition): 39% |
| 4-((4-((pyridin-2-ylmethyl)amino)-6-(trichloromethyl)-1,3,5-triazin-2-yl)amino)phenol [Example 14] | 37 | 36 | 24 | hERG [3, 5]: 11% |
| CN(C)C1CCN(c2nc(-c3ccc(Cl)c(Cl)c3)nc(C(Cl)(Cl)Cl)n2)C1 (centres unmarked) [Cmpd 20] | – | – | – | hERG [3, 5]: 50% |
| CN1CCN(c2nc(-c3ccc(Cl)c(Cl)c3)nc(C(Cl)(Cl)Cl)n2)CC1 [Cmpd 22] | – | – | – | hERG [3, 5]: 33% |
| Clc1ccc(-c2nc(N3CCNCC3)nc(C(Cl)(Cl)Cl)n2)cc1Cl [Cmpd 25] | – | – | – | hERG [3, 5]: 10% |
| CN1CCN(c2nc(-c3ccc(Cl)cc3)nc(C(Cl)(Cl)Cl)n2)CC1 [Cmpd 29] | 307 | 351 | 173 | hERG [3, 5]: 5% |
| Clc1ccc(-c2nc(N3CCOCC3)nc(C(Cl)(Cl)Cl)n2)cc1 [Cmpd 31] | – | – | – | hERG [3, 5]: 12% |
| CC(C)(C)c1ccc(-c2nc(NCCCN3CCCC3)nc(C(Cl)(Cl)Cl)n2)cc1 [Cmpd 34] | 152 | 152 | 141 | hERG [3, 5]: 80.9% |
| ClC(Cl)(Cl)c1nc(NCCN2CCCC2)nc(-c2ccc(OCc3ccccc3)cc2)n1 [Cmpd 35] | 194 | 186 | 125 | hERG [3, 5]: 56% |
| CSc1ccc(-c2nc(NCCN3CCCC3)nc(C(Cl)(Cl)Cl)n2)cc1 [Cmpd 47] | – | – | – | hERG [3, 5]: 95% |
| CC(=O)N1CCN(c2nc(-c3ccc(Cl)c(Cl)c3)nc(C(Cl)(Cl)Cl)n2)CC1 [Example 3, 1-(4-(4-(3,4-dichlorophenyl)-6-(trichloromethyl)-1,3,5-triazin-2-yl)piperazin-1-yl)ethan-1-one] | – | – | – | IC50 [1, 6]: 0.687 µg/mL (≈ 1.46 µM); IC50 [2, 6]: 0.535 µg/mL (≈ 1.14 µM); IC50 [4, 6]: 0.198 µg/mL (≈ 0.422 µM) |
| CC1═CC═C(C═C1)C1═NC(NCC2(N)CCCCC2)═NC(═N1)C(Cl)(Cl)Cl [Compound 660] | 8 | 17 | 9 | – |
| CC1═CC═C(C═C1)C1═NC(═NC(═N1)C(Cl)(Cl)Cl)N1CCC(N)CC1 [Compound 623] | – | – | – | D6 (SYBR Green Assay IC50) [1]: 0.058 µg/mL; C235 (SYBR Green Assay IC50) [2]: 0.032 µg/mL; W2 (SYBR Green Assay IC50) [4]: 0.021 µg/mL |
| CC(C)(C)c1ccc(cc1)c2nc(NCC(C)(C)CN3CCCCCC3)nc(n2)C(Cl)(Cl)Cl [Compound 737] | 241.3 | 244.2 | 101.3 | – |
| CC(C)(C)c1ccc(cc1)c2nc(NCc3cccc(CN4CCCC4)c3)nc(n2)C(Cl)(Cl)Cl [Compound 735] | 207.4 | 257.5 | 60.65 | – |
| CC(C)CN1CCC(CC1)NC1═NC(═NC(═N1)C1═CC(═CC═C1)C(F)(F)F)C(Cl)(Cl)Cl [Compound 700] | 513 | 567 | 368 | – |
| CC(C)CN1CCC(CC1)NC1═NC(═NC(═N1)C1═CC═C(C═C1)C1═CC═CC═C1)C(Cl)(Cl)Cl [Compound 699] | 564 | 746 | 430 | – |
| CC(C)CN1CCC(CC1)NC1═NC(═NC(═N1)C1═CC═CC═C1)C(Cl)(Cl)Cl [Compound 704] | 867 | 525 | 223 | – |
| CC(C)CN1CCC(CC1)NC1═NC(═NC(═N1)C(Cl)(Cl)Cl)C1═C(C═CC═C1)[N+]([O−])═O [Compound 684] | 225 | 155 | 66 | – |
| CC(C)CN1CCC(CC1)NC1═NC(═NC(═N1)C(Cl)(Cl)Cl)C1═CC═C(Cl)C(Cl)═C1 [Compound 692] | 32 | 43 | 24 | – |
| CCN1CCCC(C1)NC1═NC(NC2═CC═C(OC(F)(F)F)C═C2)═NC(═N1)C(Cl)(Cl)Cl [Compound 655] | 19 | 28 | 11 | – |
| CN1CCCN(CC1)C1═NC(NC2═CC═C(OC(F)(F)F)C═C2)═NC(═N1)C(Cl)(Cl)Cl [Compound 658] | 701 | 875 | 625 | – |
| CN1CCN(CC1)c2ccc(Nc3nc(nc(n3)C(Cl)(Cl)Cl)C(Cl)(Cl)Cl)cc2 [Compound 731] | 229 | 263 | 165 | – |

| Molecule | D6 ([1]; SYBR Green Assay) [ng/mL] | C235 ([2]; SYBR Green Assay) [ng/mL] | W2 ([4]; SYBR Green Assay) [ng/mL] | other results |
| --- | --- | --- | --- | --- |
| CN(C)CCCNc1nc(Nc2ccc(Cl)cc2)nc(n1)C(Cl)(Cl)Cl [Compound 636] | – | – | – | D6 (SYBR Green Assay IC50) [1]: 0.016 µg/mL; C235 (SYBR Green Assay IC50) [2]: 0.04 µg/mL; W2 (SYBR Green Assay IC50) [4]: 0.018 µg/mL |
| COC1═C2C═CC═CC2═C(C═C1)C1═NC(NC2CCN(CC(C)C)CC2)═NC(═N1)C(Cl)(Cl)Cl [Compound 703] | 324 | 338 | 237 | – |
| COC1═C(OC)C═C(C═C1)C1═NC(NC2CCN(CC(C)C)CC2)═NC(═N1)C(Cl)(Cl)Cl [Compound 702] | 435 | 480 | 179 | – |
| COC1═C(OC)C═C(C═C1)C1═NC(NCC2(N)CCCCC2)═NC(═N1)C(Cl)(Cl)Cl [Compound 669] | 12 | 23 | 10 | – |
| COC1═CC(═CC═C1)C1═NC(═NC(═N1)C(Cl)(Cl)Cl)N1CCC(N)CC1 [Compound 629] | – | – | – | D6 (SYBR Green Assay IC50) [1]: 0.021 µg/mL; C235 (SYBR Green Assay IC50) [2]: 0.019 µg/mL; W2 (SYBR Green Assay IC50) [4]: 0.015 µg/mL |
| CS(═O)(═O)C1═CC═C(C═C1)C1═NC(NCC2(N)CCCCC2)═NC(═N1)C(Cl)(Cl)Cl [Compound 665] | 76 | 147 | 76 | – |
| CS(═O)(═O)c1ccc(cc1)c2nc(Nc3ccc(cc3)n4cccn4)nc(n2)C(Cl)(Cl)Cl [Compound 689] | 94 | 171 | 58 | – |
| CS(═O)(═O)c1ccc(cc1)c2nc(Nc3cccnc3)nc(n2)C(Cl)(Cl)Cl [Compound 654] | 198 | 271 | 185 | – |
| CSC1═CC═C(C═C1)C1═NC(═NC(NC2CCN(CC(C)C)CC2)═N1)C(Cl)(Cl)Cl [Compound 695] | 582 | 675 | 418 | – |
| CSC1═CC═C(C═C1)C1═NC(═NC(═N1)C(Cl)(Cl)Cl)N1CCC(N)CC1 [Compound 626] | – | – | – | D6 (SYBR Green Assay IC50) [1]: 0.018 µg/mL; C235 (SYBR Green Assay IC50) [2]: 0.011 µg/mL; W2 (SYBR Green Assay IC50) [4]: 0.007 µg/mL |
| CSc1ccc(cc1)c2nc(nc(n2)C(Cl)(Cl)Cl)N3CC4CC3CN4 [Compound 723] | 128 | 118 | 92 | – |
| CSc1ccc(cc1)c2nc(nc(n2)C(Cl)(Cl)Cl)N3CC4CC3CN4C(═O)OC(C)(C)C [Compound 710] | 145 | 571 | 281 | – |
| ClC(Cl)(Cl)c1ccc(cc1)c2nc(NCc3ccncc3)nc(n2)C(Cl)(Cl)Cl [Compound 652] | – | – | – | D6 (SYBR Green Assay IC50) [1]: 0.385 µg/mL; C235 (SYBR Green Assay IC50) [2]: 0.876 µg/mL; W2 (SYBR Green Assay IC50) [4]: 0.301 µg/mL |
| ClC(Cl)(Cl)c1nc(Nc2ccc(cc2)n3cccn3)nc(n1)C(Cl)(Cl)Cl [Compound 732] | 386 | 584 | 160 | – |
| Clc1ccc(cc1)c2nc(nc(n2)C(Cl)(Cl)Cl)N3CC4CC3CN4 [Compound 717] | 259 | 264 | 163 | – |
| Clc1ccc(cc1Cl)c2nc(nc(n2)C(Cl)(Cl)Cl)N3CC4CC3CN4 [Compound 716] | 540.4 | 439.4 | 335.2 | – |
| FC(F)(F)OC1═CC═C(NC2═NC(═NC(NCCCN3CCCC3)═N2)C(Cl)(Cl)Cl)C═C1 [Compound 657] | 535 | 731 | 390 | – |
| FC(F)(F)OC1═CC═C(NC2═NC(═NC(═N2)C(Cl)(Cl)Cl)N2CC3CC2CN3)C═C1 [Compound 725] | 64 | 93 | 53 | – |
| NC1(CNC2═NC(═NC(═N2)C2═CC(Cl)═CC(Cl)═C2)C(Cl)(Cl)Cl)CC1 [Compound 683] | 727 | 795 | 503 | – |
| NC1(CNC2═NC(═NC(═N2)C2═CC(Cl)═CC═C2)C(Cl)(Cl)Cl)CC1 [Compound 680] | 100 | 98 | 35 | – |
| NC1CCN(CC1)C1═NC(═NC(═N1)C1═CC2═C(C═CC═C2)C═C1)C(Cl)(Cl)Cl [Compound 628] | – | – | – | D6 (SYBR Green Assay IC50) [1]: 0.042 µg/mL; C235 (SYBR Green Assay IC50) [2]: 0.02 µg/mL; W2 (SYBR Green Assay IC50) [4]: 0.017 µg/mL |
| NC1CCN(CC1)C1═NC(═NC(═N1)C1═CC═C(C═C1)C1═CC═CC═C1)C(Cl)(Cl)Cl [Compound 634] | – | – | – | D6 (SYBR Green Assay IC50) [1]: 0.145 µg/mL; C235 (SYBR Green Assay IC50) [2]: 0.088 µg/mL; W2 (SYBR Green Assay IC50) [4]: 0.062 µg/mL |
| NC1CCN(CC1)C1═NC(═NC(═N1)C(Cl)(Cl)Cl)C1═CC(Cl)═CC(Cl)═C1 [Compound 631] | – | – | – | D6 (SYBR Green Assay IC50) [1]: 0.291 µg/mL; C235 (SYBR Green Assay IC50) [2]: 0.219 µg/mL; W2 (SYBR Green Assay IC50) [4]: 0.153 µg/mL |
| NC1CCN(CC1)C1═NC(═NC(═N1)C(Cl)(Cl)Cl)C1═CC═C(Cl)C(Cl)═C1 [Compound 622] | – | – | – | D6 (SYBR Green Assay IC50) [1]: 0.074 µg/mL; C235 (SYBR Green Assay IC50) [2]: 0.059 µg/mL; W2 (SYBR Green Assay IC50) [4]: 0.036 µg/mL |
